Laboratory results reported in publication PMC5636972 (Cell Death & Disease, 2017).

Experiments:
MDA-MB-231 cells [1] = assay: MTT cell viability assay, MDA-MB-231; format: cell-based; details: for EC50: MTT, 72 h; for killing these cancer cells (in words): MDA-MB-231, MKN-45, HCT116, Colo205, Table 1
Excerpt: (§1) To evaluate the potency of I-Trp in killing these cancer cell lines, we performed MTT assay to determine the cell viability of target cells. […] The cancer cells with higher expression levels of CCT-β were indeed more sensitive to I-Trp.

Colo205 cells = assay: MTT cell viability assay, Colo205; format: cell-based
Excerpt: as §1

MKN-45 cells = assay: MTT cell viability assay, MKN-45; format: cell-based
Excerpt: as §1

HCT116 cells = assay: MTT cell viability assay, HCT116; format: cell-based
Excerpt: as §1

MCF-10A cells = assay: MTT cell viability assay, non-tumorigenic MCF-10A; format: cell-based; details: for EC50: MTT, 72 h, normal cells
Excerpt: as §1

I-Trp-induced apoptosis = assay: Reversal of I-Trp-induced apoptosis by pretreatment with inhibitors (sub-G0 flow cytometry); format: cell-based
Experimental: Figure 4 Effect of I-Trp on the levels of intracellular Ca^2+. (a) I-Trp induces intracellular Ca^2+ release in a concentration-dependent manner. Cells were pretreated with BAPTA/AM (negative control) for 1 h, with MCN-A-343 (positive control) or different concentrations of I-Trp and incubated with Fluo-4 for 40 min. After incubation, the fluorescence signal was immediately measured using a fluorescence microplate reader by excitation at 509 nm and emission at 516 nm. (b) Cells were pre-incubated with BAPTA/AM (1–20 μM) for 1 h prior to treatment with EC50 concentrations of I-Trp for 72 h. Cell apoptosis was assessed via PI-based flow cytometric analysis. Data are expressed as mean±S.D. ***P<0.001, significant difference as compared to control. ^#P<0.05, ^##P<0.01 and ^###P<0.001 significant difference as compared to I-Trp alone
Next, we used ERK1/2 inhibitor U0126,[33], [34] JNK inhibitor SP600125,[35], [36] and p38 inhibitor SB203580[37] to confirm the involvement of MAPKs in I-Trp-induced apoptosis. We pretreated the cancer cell lines with 0.5–10 μM U0126, 1–10 μM SP600125, or 1–10 μM SB203580 for 1 h and subsequently treated them with I-Trp to detect the sub-G0 cell accumulation by flow cytometry.
(§2) Cells (3 × 10^5) were fixed in 70% ice-cold EtOH for 30 min at RT. Cells were washed with PBS once and then incubated with propidium iodide (PI) staining solution (PBS containing 0.1 % BSA, 0.1% RNase A, and […] PI) for 30 min at RT in the dark. After the incubation, the cells were analyzed by flow cytometry to assess their DNA content.

MDA-MB-231 cells [2] = assay: PI-based flow cytometric sub-G0 apoptosis assessment; format: cell-based; details: MDA-MB-231 with CCT-β shRNA clones, 10 μM, 72 h
Experimental: as §2

[3] = test system: MDA-MB-231, MKN-45, HCT116, and Colo205 cells; assay: as above; format: cell-based; details: 72 h, different concentrations, the four cancer cell lines
Experimental: as §2

proteasome activity = assay: Proteasome activity assay in cell lysates; format: cell-based
Experimental: After being treated with I-Trp for designated time periods, cells were collected and resuspended in cell lysis buffer (BioVision). Aliquots of cell lysates (100 μg) were incubated with 1 μM of fluorescent proteasome substrate (BioVision) for 30 min at 37 °C. The fluorescent intensity was read using a fluorimeter with an exciting wavelength at 355 nm and emission wavelength at […] and presented as relative proteasome activity.

caspases = assay: Caspase activity assay (fluorescent substrates); format: cell-based; details: EC50 concentrations, 72 h, the four cancer cell lines
Experimental: The caspase activity assay was performed according to the manufacturer’s guidelines (BioVision). Briefly, cell lysates (200 μg) were diluted in 50 μl of cell lysis buffer (supplied by the kit). Equal volumes of the 2 × reaction buffer (supplied by the kit) containing 10 mM DTT were added to the cell lysates. Subsequently, 50 μM of fluorescent dye-conjugated caspase substrate was individually added to the designated caspase activity assay. After a 2-h incubation, free fluorescent dyes in the solution were read in a fluorimeter equipped with a 385-nm excitation filter and 510-nm emission filter.

CCT-β and β-tubulin mRNA = assay: Real time qPCR for CCT-β and β-tubulin mRNA; format: cell-based; details: HCT116, MKN-45, MDA-MB-231, Colo205
Excerpt: Mean values ± S.D. from three independent samples are shown. The RT-PCR experiments reveal that the mRNA levels of CCT-β and β-tubulin were not changed after I-Trp treatment in the tested cancer cells.

[4] = test system: MDA-MB-231, MKN-45, HCT116, and Colo205 cells; assay: Long-term colony formation assay; format: cell-based; details: 0.31 to 2.5 μM, 7 days
Excerpt: Next, we investigated the long-term effect of I-Trp on proliferation of the target cells using the colony formation assay.

β-tubulin = test system: β-tubulin; design: method as in PMID 19690144; details: cited from earlier work
[5] = test system: CCT-β : β-tubulin complex; assay: co-IP with CCT-β antibody, immunoblot for β-tubulin; format: cell-based; details: 5 or 10 μM, 6 h; MDA-MB-231, MKN-45, HCT116, Colo205 lysates
Experimental: With GADPH as a protein-loading control, we also confirmed that the input of β-tubulin and CCT-β in the experiments was equal with or without treatment. […] After 24–48 h of I-Trp treatment, cells underwent apoptosis to trigger proteasome activity for cellular protein degradation as reported previously.[14]
(a) Using CCT-β antibody to co-IP the complex, and then detecting the quantity of trapped β-tubulin with western blotting using β-tubulin antibody. […] The cancer cells were treated with I-Trp for the designated time periods. Cell lysates were examined using the proteasome activity assay. (c) The changed expression levels of ER stress protein markers upon I-Trp treatment
The cell lysates (100 μg) were boiled for 5 min in SDS sample buffer (62.5 mM Tris-HCl pH 6.7, 1.25% SDS, 12.5% glycerol, and 2.5% β-mercaptoethanol), and the proteins were separated via SDS-PAGE. For western blotting, proteins were transferred onto a PVDF membrane (Millipore, MA, USA) and incubated with different antibody agents. After incubation with horseradish peroxidase (HRP)-conjugated secondary antibody, immuno-reactive protein bands were visualized using the enhanced chemiluminescence (ECL) system (Amersham Bioscience, Tokyo, Japan).

intracellular Ca^2+ = assay: Fluo-4 intracellular Ca2+ assay; format: cell-based; details: the four cancer cell lines, Fluo-4, 40 min
Experimental: We used a Fluo-4 direct calcium assay kit from Invitrogen (catalog item F10471) to measure the intracellular calcium response to I-Trp in target cancer cell lines. Cancer cell lines were cultured in 96-well plates with media containing 10% FBS. After reaching confluence, cancer cells were treated with MCN-A-343 (positive control), BATPA (negative control), or I-Trp and incubated with Fluo-4 direct calcium reagent loading solution for 40 min. After incubation, the fluorescence signal was immediately measured using a fluorescence microplate reader at excitation and emission of 509 and 516 nm, respectively.

microtubules = test system: microtubules; design: method as in PMID 19690144; details: cited from earlier work

| Structure (SMILES) | EC50 (MDA-MB-231 cells [1]) | EC50 (Colo205 cells; 72 h) | EC50 (MKN-45 cells; 72 h) | EC50 (HCT116 cells; 72 h) | EC50 (MCF-10A cells) | further results |
| --- | --- | --- | --- | --- | --- | --- |
| COC(=O)C(Cc1c[nH]c2ccccc12)NC(=O)C(F)(F)F (stereo not drawn) [Compound 1g] | > 20 µM | > 20 µM | > 20 µM | > 20 µM | > 20 µM |  |
| COC(=O)C1Cc2c([nH]c3ccccc23)C(c2ccccc2)N1C(=O)CCl (stereo not drawn) [Compound 3] |  |  |  |  |  | EC50 (MDA-MB-231 cells [1]; Homo sapiens, MDA-MB-231): 2.7 µM; killing these cancer cells (in words) (MDA-MB-231 cells [1]): effectively killed cancer cells; EC50 (Colo205 cells; Homo sapiens, COLO 205, 72 h): 8.1 µM; EC50 (MKN-45 cells; Homo sapiens, MKN-45, 72 h): 4.7 µM; EC50 (HCT116 cells; Homo sapiens, HCT-116, 72 h): 3.3 µM; EC50 (MCF-10A cells; Homo sapiens, MCF-10A): > 20 µM |
| C[S+]([O-])c1ccc(-c2nc(-c3ccncc3)c(-c3ccc(F)cc3)[nH]2)cc1 (stereo not drawn) [SB203580] |  |  |  |  |  | reversal of I-Trp-induced apoptosis (I-Trp-induced apoptosis; 1–10 μM pretreatment 1 h, the cancer cell lines): reduced the percentage of I-Trp-induced apoptotic cells |
| COc1cccc2c1C(=O)c1c(O)c3c(c(O)c1C2=O)C[C@@](O)(C(=O)CO)C[C@@H]3O[C@H]1C[C@H](N)[C@H](O)[C@H](C)O1 [Doxorubicin, reference compound] |  |  |  |  |  | EC50 (MDA-MB-231 cells [1]; Homo sapiens, MDA-MB-231): 0.46 µM; EC50 (Colo205 cells; Homo sapiens, COLO 205, 72 h): 0.5 µM; EC50 (MKN-45 cells; Homo sapiens, MKN-45, 72 h): 0.24 µM; EC50 (HCT116 cells; Homo sapiens, HCT-116, 72 h): 0.26 µM; EC50 (MCF-10A cells; Homo sapiens, MCF-10A): 3.8 µM |
| COC(=O)C(Cc1c[nH]c2ccccc12)NC(=O)CBr (stereo not drawn) [Compound 1b] | 3.75 µM | 1.6 µM | 2.5 µM | 1.1 µM | > 20 µM | killing these cancer cells (in words) (MDA-MB-231 cells [1]): almost equipotent as I-Trp (1a) |
| N#CC(=C(/N)Sc1ccccc1N)/C(C#N)=C(/N)Sc1ccccc1N [Compound U0126] |  |  |  |  |  | reversal of I-Trp-induced apoptosis (I-Trp-induced apoptosis; MKN-45 cells, 0.5–10 μM pretreatment 1 h): could not reverse the I-Trp-induced apoptosis |
| COC(=O)C(Cc1c[nH]c2ccccc12)NC(=O)CC#N (stereo not drawn) [Compound 1h] | > 20 µM | > 20 µM | > 20 µM | > 20 µM | > 20 µM |  |
| Oc1c2ccccc2c2c3c(cccc13)N=N2 [SP600125] |  |  |  |  |  | reversal of I-Trp-induced apoptosis (I-Trp-induced apoptosis; MDA-MB-231 and HCT116 cells, 1–10 μM pretreatment 1 h): could not reverse I-Trp-induced apoptosis |
| COC(=O)C(Cc1c[nH]c2ccccc12)NC(=O)C[N+](=O)[O-] (stereo not drawn) [Compound 1e] | > 20 µM | 15.9 µM | 14.1 µM | 20.9 µM | > 20 µM |  |
| COC(=O)C(Cc1c[nH]c2ccccc12)NC(=O)C(Cl)Cl (stereo not drawn) [Compound 1d] | > 20 µM | > 20 µM | > 20 µM | > 20 µM | > 20 µM |  |
| COC(=O)C(Cc1c[nH]c2ccccc12)NC(=O)CC(F)(F)F (stereo not drawn) [Compound 1f] | > 20 µM | > 20 µM | > 20 µM | > 20 µM | > 20 µM |  |
| COC(=O)C1Cc2c([nH]c3ccccc23)C(c2ccccc2)N1C(=O)CI (stereo not drawn) [Compound 4] |  |  |  |  |  | EC50 (MDA-MB-231 cells [1]; Homo sapiens, MDA-MB-231): 0.59 µM; potency relative to doxorubicin (MDA-MB-231 cells [1]; cancer cell lines of Table 1): slightly less (~twofold) potent than doxorubicin; EC50 (Colo205 cells; Homo sapiens, COLO 205, 72 h): 0.99 µM; EC50 (MKN-45 cells; Homo sapiens, MKN-45, 72 h): 1.6 µM; EC50 (HCT116 cells; Homo sapiens, HCT-116, 72 h): 0.54 µM; EC50 (MCF-10A cells; Homo sapiens, MCF-10A): ~20 µM; toxicity relative to doxorubicin on MCF-10A (MCF-10A cells; MCF-10A): significantly less (~fivefold) toxic compared to doxorubicin |
| COC(=O)[C@@H](Cc1c[nH]c2ccccc12)NC(=O)CI [I-Trp] | 2.5 µM | 0.9 µM | 1.27 µM | 0.88 µM | > 20 µM | cell death (sub-G0) after knockdown of CCT-β (MDA-MB-231 cells [2]): significantly (P<0.001) reduced cell death from I-Trp exposure; sub-G0 cell accumulation [3]: dose-dependent sub-G0 cell accumulation; proteasome activities (proteasome activity; MDA-MB-231 cells): less apparent; proteasome activities (proteasome activity; MKN-45, HCT116, and Colo205 cells): elevated in an I-Trp dose-dependent manner; activities of caspases-2 to -9 (caspases): enhanced; mRNA levels of CCT-β and β-tubulin (CCT-β and β-tubulin mRNA): not changed; toxicity to MCF-10A (in words) (MCF-10A cells; MCF-10A): non-toxic; colony formation [4]: formed more diffuse or smaller colonies; covalent modification of β-tubulin (β-tubulin): alkylate Cys^354 of β-tubulin; disruption of the CCT-β : β-tubulin complex (trapped β-tubulin) [5]: disrupted the CCT-β : β-tubulin complex; intracellular Ca^2+ mobilization (intracellular Ca^2+): induced the intracellular Ca^2+ mobilization in a dose-dependent manner; effect on polymerization/depolymerization of microtubules (microtubules): does not affect the polymerization/depolymerization of microtubules |
| COC(=O)C(Cc1c[nH]c2ccccc12)NC(=O)CCl (stereo not drawn) [Compound 1c] | 19.5 µM | > 20 µM | > 20 µM | > 20 µM | > 20 µM | killing these cancer cells (in words) (MDA-MB-231 cells [1]): mostly inactive |
